The values below come from patent US9861102B2, “Methods for disinfection” (Markesbery Blue Pearl LLC, priority 2016, dated 2018).

The test system of the assay is Bacillus subtilis bacteria. Put plainly: Closed-system control experiments of peracid reactant compounds, percent kill. The format is cell-based. Particulars: for Percent Kill: B. subtilis agar plates, electrostatic spray, 2-micron thickness, concentrations as in Example 2, charge as indicated. From the text: The electrostatic spray device used was a Hurricane ES™ Portable Electrostatic Aerosol Applicator, modified to selectively impart either a positive, negative, or neutral charge when dispersing an aqueous composition containing a peracid reactant compound. In experiments where multiple aqueous compositions containing peracid reactant compounds were dispersed, the compositions were dispersed sequentially, and all aqueous compositions were dispersed with either a positive, negative, or neutral charge, as indicated below in Table 5. […] In all experiments, the percent by weight of distilled water was adjusted appropriately in response to the addition or deletion of a peracid reactant compound. […] Processing and handling of the agar plates containing the B. subtilis bacteria was conducted according to the procedure used in Example 3.

On to `OO` [Exp 7, Hydrogen Peroxide], for which the “Percent Kill” value was 72%.

As for `CC(=O)O` [Exp 8, Acetic Acid], the “Percent Kill” value was determined as 6%.

As for `CCO` [Exp 9, Ethanol], the “Percent Kill” value is listed as 0%. Also, the “effect on bacterial growth” value (ethanol on its own) is given as “no effect”.
